Reference: patent US12286435B2, “Compound having benzo seven-membered ring structure, preparation method therefor, and use thereof” (BIONNA (BEIJING) MEDICAL TECHNOLOGY CO., LTD., priority 2019, dated 2025)

Columns and labels:
[1] = molecular target: BRD4 BD1 protein (Homo sapiens (Human), UniProt O60885); experiment: Fluorescence polarization binding affinity (Ki) with BRD4 BD1 protein; details: fluorescence polarization; Ki calculated from IC50
[2] = molecular target: BRD4 BD2 protein (Homo sapiens (Human), UniProt O60885); experiment: Fluorescence polarization binding affinity (Ki) with BRD4 BD2 protein; details: fluorescence polarization; Ki calculated from IC50
[3] = system: multiple myeloma MM.1S cell line; experiment: Cell viability (CCK-8), multiple myeloma MM.1S; format: cell-based; details: MM.1S cells, 4 days, CCK-8, 50% inhibition of cell growth
Method: 3. Determination of cell viability of the compound
The sample to be tested was dissolved with 100% dimethyl sulfoxide to prepare a 20 mM stock solution of the compound, which was diluted with 100% dimethyl sulfoxide to the highest compound concentration required for the experiment (2.5 mM).
First, 145 uL of a complete cell culture medium was added to wells B1-G1 of a 96-well flat-bottomed tansparent cell culture plate, and 100 uL of the complete medium was added to wells B2-G12, respectively. Then, 5 uL of the 2.5 mM solution of the compound was added to wells B1-D1 and E1-G1 respectively, and then diluted gradiently by 3-folds to B12-D12 and E12-G12 in sequence. Finally, 50 uL of the solution of the cells to be tested was added to each well, with about 3000-5000 cells per well, and a total volume of 150 uL per well.
In the experiment, in addition to the tested compound, two other control groups were set up: 1) a control group adding the cells and the complete medium, but without adding the compound; 2) a control group adding the complete medium only, without adding the cells and the compound. The 96-well plate was placed in a 37° C. cell culture incubator containing 5% carbon dioxide for 4 days, added with 15 uL of a CCK-8 reagent per well, and then incubated at 37° C. for 2-4 hours. The 96-well plate was read on a TECAN microplate reader, and the absorbance value at 450 nm wavelength was taken.
The effect of different concentrations of the compound on cell viability was calculated by the following equation: [absorption value of the experimental group−absorption value of pure cell culture medium without the cells or the compound]/[absorption value of the control group with the tumor cells but no testing compound−absorption value of pure cell culture medium without the cell or the compound]×100%.
The above data were precessed by software, and the IC50 value was the concentration of the compound corresponding to the 50% inhibition rate of cell growth.
Based on the above test method of the compound on cell viability, a variety of […] cancer cell lines were tested, using multiple myeloma MM.1S, breast cancer MDA-MB-231 and leukemia MV4-11 cell lines as exemples. Using this test method, the IC50 values of partial compounds in the examples of the present invention measured in multiple myeloma MM.1S, breast cancer MDA-MB-231 cell lines and leukemia MV4-11 cell lines were shown in Table 2.

| SMILES | Ki [1] [nM] | Ki [2] [nM] | IC50 ([3]; Homo sapiens, MM1.S, 96 h) [nM] | IC50 [3] [nM] |
| --- | --- | --- | --- | --- |
| Cc1nnn2c1-c1ccc(-c3cnn(C)c3)cc1C(Nc1ccc(CCO)cc1)CC2 (stereo not drawn) [LB24, 2-(4-((1-methyl-9-(1-methyl-1H-pyrazol-4-yl)-6,7-dihydro-5H-benzo[c][1,2,3]triazolo[1,5-a]azepin-7-yl)amino)phenyl)ethan-1-ol] | 64.5 | 22.4 | 51.7 |  |
| Cc1nnn2c1-c1ccc(-c3cnn(C)c3)cc1C(Nc1ccc(C(N)=O)cc1)CC2 (stereo not drawn) [LB32, 4-((1-methyl-9-(1-methyl-1H-pyrazol-4-yl)-6,7-dihydro-5H-benzo[c][1,2,3]triazolo[1,5-a]azepin-7-yl)amino)benzamide] | 235 | 43.7 | 602 |  |
| Cc1nnn2c1-c1ccc(-c3cnn(C)c3)cc1C(Nc1ccc(CO)cc1)CC2 (stereo not drawn) [LB35, (4-((1-methyl-9-(1-methyl-1H-pyrazol-4-yl)-6,7-dihydro-5H-benzo[c][1,2,3]triazolo[1,5-a]azepin-7-yl)amino)phenyl)methanol] | 614 | 23.9 | 36.5 |  |
| Cc1nnn2c1-c1ccc(-c3cnn(C)c3)cc1C(Nc1ccc(CC(=O)O)cc1)CC2 (stereo not drawn) [LB36, 2-(4-((1-methyl-9-(1-methyl-1H-pyrazol-4-yl)-6,7-dihydro-5H-benzo[c][1,2,3]triazolo[1,5-a]azepin-7-yl)amino)phenyl)acetic acid] | 97.6 | 42.5 | 412 |  |
| CNC(=O)Cc1ccc(NC2CCn3nnc(C)c3-c3ccc(-c4cnn(C)c4)cc32)cc1 (stereo not drawn) [LB42, N-methyl-2-(4-((1-methyl-9-(1-methyl-1H-pyrazol-4-yl)-6,7-dihydro-5H-benzo[c][1,2,3]triazolo[1,5-a]azepin-7-yl)amino)phenyl)acetamide] | 34.5 | 8.19 |  | 16 |
| Cc1nnn2c1-c1ccc(-c3cnn(C)c3)cc1C(Nc1cccc(CC(=O)O)c1)CC2 (stereo not drawn) [LB62, 2-(3-((1-methyl-9-(1-methyl-1H-pyrazol-4-yl)-6,7-dihydro-5H-benzo[c][1,2,3]triazolo[1,5-a]azepin-7-yl)amino)phenyl) acetic acid] | 229 | 13 | 14000 |  |
| COC(=O)Cc1cccc(NC2CCn3nnc(C)c3-c3ccc(-c4cnn(C)c4)cc32)c1 (stereo not drawn) [LB63, methyl 2-(3-((1-methyl-9-(1-methyl-1H-pyrazol-4-yl)-6,7-dihydro-5H-benzo[c][1,2,3]triazolo[1,5-a]azepin-7-yl)amino)phenyl)acetate] | 77.8 | 14 | 160 |  |
| Cc1nnn2c1-c1ccc(-c3cnn(C)c3)cc1C(Nc1ccc(OCCO)cc1)CC2 (stereo not drawn) [LB68, 2-(4-((1-methyl-9-(1-methyl-1H-pyrazol-4-yl)-6,7-dihydro-5H-benzo[c][1,2,3]triazolo[1,5-a]azepin-7-yl)amino)phenoxy)ethanol] | 68.5 | 13 | 112 |  |
| Cc1nnn2c1-c1ccc(-c3cnn(C)c3)cc1C(Nc1cccc(OCCO)c1)CC2 (stereo not drawn) [LB77, 2-(3-((1-methyl-9-(1-methyl-1H-pyrazol-4-yl)-6,7-dihydro-5H-benzo[c][1,2,3]triazolo[1,5-a]azepin-7-yl)amino)phenoxy)ethanol] | 99.9 | 6 | 71.7 |  |
| Cc1nnn2c1-c1ccc(-c3cnn(C)c3)cc1C(Nc1ccc(C(O)(C(F)(F)F)C(F)(F)F)cc1)CC2 (stereo not drawn) [LB83, 1,1,1,3,3,3-hexafluoro-2-(4-((1-methyl-9-(1-methyl-1H-pyrazol-4-yl)-6,7-dihydro-5H-Benzo[c][1,2,3]triazolo[1,5-a]azepin-7-yl)amino)phenyl)propan-2-ol] | 180 | 38.4 | 250 |  |
| Cc1nnn2c1-c1ccc(-c3cnn(C)c3)cc1C(Nc1cccc3ncccc13)CC2 (stereo not drawn) [LB86, 1-methyl-9-(1-methyl-1H-pyrazol-4-yl)-N-(quinolin-5-yl)-6,7-dihydro-5H-benzo[c][1,2,3]triazolo[1,5-a]azepin-7-amine] | 56 | 14 | 45.1 |  |
| Cc1nnn2c1-c1ccc(-c3cnn(C)c3)cc1C(Nc1ccc3ncccc3c1)CC2 (stereo not drawn) [LB88, 1-methyl-9-(1-methyl-1H-pyrazol-4-yl)-N-(quinolin-6-yl)-6,7-dihydro-5H-benzo[c][1,2,3]triazolo[1,5-a]azepin-7-amine] | 137 | 15.1 | 24.3 |  |
| Cc1nnn2c1-c1ccc(-c3cnn(C)c3)cc1C(Nc1ccc3cccnc3c1)CC2 (stereo not drawn) [LB89, 1-methyl-9-(1-methyl-1H-pyrazol-4-yl)-N-(quinolin-7-yl)-6,7-dihydro-5H-benzo[c][1,2,3]triazolo[1,5-a] azepin-7-amine] | 426 | 50.5 | 143 |  |
| Cc1nnn2c1-c1ccc(-c3cnn(C)c3)cc1C(Nc1ccccc1OCCO)CC2 (stereo not drawn) [LB90, 2-(2-((1-methyl-9-(1-methyl-1H-pyrazol-4-yl)-6,7-dihydro-5H-benzo[c][1,2,3]triazolo[1,5-a]azepin-7-yl)amino)phenoxy)ethanol] | 134 | 16.5 | 51.9 |  |
| Cc1nnn2c1-c1ccc(-c3cnn(C)c3)cc1C(Nc1cccc3cccnc13)CC2 (stereo not drawn) [LB91, 1-methyl-9-(1-methyl-1H-pyrazol-4-yl)-N-(quinolin-8-yl)-6,7-dihydro-5H-benzo[c][1,2,3]triazolo[1,5-a]azepin-7-amine] | 81.4 | 11.6 | 13.4 |  |
| COC(=O)c1cccc(NC2CCn3nnc(C)c3-c3ccc(-c4cnn(C)c4)cc32)c1 (stereo not drawn) [LB92, methyl 3-((1-methyl-9-(1-methyl-1H-pyrazol-4-yl)-6,7-dihydro-5H-benzo[c][1,2,3]triazolo[1,5-a]azepin-7-yl)amino)benzoate] | 133 | 17.9 | 121 |  |
| Cc1nnn2c1-c1ccc(-c3cnn(C)c3)cc1C(Nc1cccc(C(=O)O)c1)CC2 (stereo not drawn) [LB97, 3-((1-methyl-9-(1-methyl-1H-pyrazol-4-yl)-6,7-dihydro-5H-benzo[c][1,2,3]triazolo[1,5-a]azepin-7-yl)amino)benzoic acid] | 355 | 27.9 | 8160 |  |
| Cc1nnn2c1-c1ccc(-c3cnn(C)c3)cc1C(Nc1ccc3[nH]ccc3c1)CC2 (stereo not drawn) [LB98, N-(1H-indo1-5-yl)-1-methyl-9-(1-methyl-1H-pyrazol-4-yl)-6,7-dihydro-5H-benzo[c][1,2,3]triazolo[1,5-a]azepin-7-amine] | 52.4 | 9.1 | 21.5 |  |
| Cc1nnn2c1-c1ccccc1C(Nc1cccc3cnccc13)CC2 (stereo not drawn) [LB103, N-(isoquinolin-5-yl)-1-methyl-6,7-dihydro-5H-benzo[c][1,2,3]triazolo [1,5-a]azepin-7-amine] | 607 | 95.2 | 389 |  |
| Cc1nnn2c1-c1ccc(-c3cnn(C)c3)cc1C(Nc1ccc3cc[nH]c3c1)CC2 (stereo not drawn) [LB113, N-(1H-indo1-6-yl)-1-methyl-9-(1-methyl-1H-pyrazol-4-yl)-6,7-dihydro-5H-benzo[c][1,2,3]triazolo[1,5-a]azepin-7-amine] | 38 | 7.4 | 11.2 |  |
| Cc1nnn2c1-c1ccc(-c3cnn(C)c3)cc1C(Nc1cccc3[nH]ccc13)CC2 (stereo not drawn) [LB114, N-(1H-indo1-4-yl)-1-methyl-9-(1-methyl-1H-pyrazol-4-yl)-6,7-dihydro-5H-benzo[c][1,2,3]triazolo[1,5-a]azepin-7-amine] | 45.3 | 8.8 | 1.2 |  |
